# Laboratory results from patent publication US20160184322A1 (priority 2013, published 2016).
# Read-outs that look alike come from different tables or passages of the source.
# What was measured:
# [1] = test system: SH-SY5Y cells; test: Lactate dehydrogenase release after oxygen and glucose deprivation (OGD); assay type: cell-based; details: for most effective concentrations to attenuate OGD-induced LDH release: both the 0 and 24 hour post-OGD time points
# [2] = test system: glutathione reductase; test: Glutathione reductase assay in rat model of mTBI (three repeated impacts); assay type: in vivo, Sprague Dawley rats; details: 16 mg/kg intraperitoneal 15 minutes after last impact; tissue 24 hours after drug; one-way ANOVA p=0.675
# Excerpt: Glutathione reductase assay was used to measure the antioxidant capacity of PRV-001. Glutathione reductase (GR) is an enzyme which catalyzes the reduction of glutathione (GSSR) to reduced glutathione (GSH). GSH is an important intracellular antioxidant that reacts with oxygen free radicals which are harmful to the cell. High GSH to GSSR ratio is important to cellular survival and GR catalyzes the reduction, therefore becoming an important indicator of antioxidant capacity.
# Sprague Dawley rats were obtained from Charles River Laboratories and subjected to three repeated impacts spaced 20 minutes apart. Prior to surgery, animals were anesthetized via inhalation with an initial induction with 5% isofluorane with oxygen at a rate of […] a Matrix 3000 Isofluorane Vaporizer (Midmark, Versailles, Ohio). […] The animal's scalp was shaved and cleaned with a 70% isopropanol solution and 10% betadine solution (Med-Vet International, Mettawa, Ill.). During the surgery, anesthesia was maintained at 2.5% isofluorane with oxygen at a rate of 500-1000 mL/min. The animal's head was then secured in a stereotaxic apparatus (David Kopf Instruments, Tujanga, Calif.) and a medial incision was performed and the scalp pulled back with bulldogs clips over the right frontal and parietal bone. […]
# [3] = test system: SH-SY5Y cells; test: LDH release after t-BOOH-induced oxidative stress; assay type: cell-based; details: 25 μM t-BOOH 6 hours, 24 hours pre-treatment 1-80 μM; for LDH release following exposure to oxidative stress, group differences: ANOVA p=0.214
# [4] = test system: rats suffering from TBI; details: cited from earlier work; for brain water content (measure of edema): 72 hours post-injury, ent-Prog 16 mg/kg
# [5] = test system: glutathione reductase; details: 72 hours post-injury, compared to all other groups, p<0.01; cited from earlier work
# [6] = biological target: T1, classical progesterone receptor (PR) (Homo sapiens, UniProt P06401); details: cited from earlier work
# T1 sequence (P06401 1-933): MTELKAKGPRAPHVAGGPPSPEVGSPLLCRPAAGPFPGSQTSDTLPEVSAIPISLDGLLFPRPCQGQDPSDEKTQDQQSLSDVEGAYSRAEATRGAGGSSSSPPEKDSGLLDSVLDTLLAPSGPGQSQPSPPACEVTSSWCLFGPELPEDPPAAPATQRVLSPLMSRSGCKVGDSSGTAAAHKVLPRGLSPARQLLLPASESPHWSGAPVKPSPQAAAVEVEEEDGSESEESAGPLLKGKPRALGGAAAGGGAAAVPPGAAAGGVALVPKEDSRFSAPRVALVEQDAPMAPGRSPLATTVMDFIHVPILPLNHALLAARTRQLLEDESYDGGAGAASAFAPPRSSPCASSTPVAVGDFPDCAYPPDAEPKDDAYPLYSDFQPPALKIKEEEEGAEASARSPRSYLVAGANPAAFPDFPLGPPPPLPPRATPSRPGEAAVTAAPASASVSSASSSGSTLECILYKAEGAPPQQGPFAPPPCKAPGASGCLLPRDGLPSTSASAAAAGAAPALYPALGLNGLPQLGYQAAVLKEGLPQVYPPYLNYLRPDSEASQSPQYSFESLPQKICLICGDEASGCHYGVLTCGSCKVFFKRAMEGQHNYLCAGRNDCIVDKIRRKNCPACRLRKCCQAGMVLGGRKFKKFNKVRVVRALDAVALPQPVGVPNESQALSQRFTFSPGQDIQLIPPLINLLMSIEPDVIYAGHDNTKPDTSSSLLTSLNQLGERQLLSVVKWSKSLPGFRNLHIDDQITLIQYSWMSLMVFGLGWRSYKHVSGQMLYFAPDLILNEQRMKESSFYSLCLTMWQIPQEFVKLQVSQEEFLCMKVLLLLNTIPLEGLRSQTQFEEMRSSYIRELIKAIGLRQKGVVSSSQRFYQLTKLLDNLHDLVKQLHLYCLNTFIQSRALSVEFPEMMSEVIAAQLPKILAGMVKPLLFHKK
# [7] = test system: rodents following injury; details: cited from earlier work; for most beneficial concentration for reducing edema, inflammation, oxidative stress and cell death within the penumbral region: IP, moderate to severe TBI model, 72 hours following injury
# [8] = test system: rats that have suffered a concussion; test: Morris Water Maze latency to platform in mTBI (concussion) model (FIG. 8); assay type: in vivo, rat; details: vs vehicle-injured rats
# [9] = test system: moderate to severe TBI patients; details: cited from earlier work
# [10] = test system: severe TBI patients; details: six months; cited from earlier work
# [11] = males; cited from earlier work
smiles,measurement,setting,value
"CC(=O)[C@@H]1CC[C@@H]2[C@H]3CCC4=CC(=O)CC[C@@]4(C)[C@@H]3CC[C@]21C [ent-Prog, ent-progesterone]",LDH release compared to control cells that did not undergo OGD,[1],significantly higher
same,LDH release compared to other treated groups,[1],significant reduction
same,LDH release compared to untreated cells exposed to OGD,[1],significant reduction
same,"promoting cellular survival following oxygen and glucose deprivation, PRV-001 compared with progesterone",[1],equally effective
same,most effective concentrations to attenuate OGD-induced LDH release,[1],5 µM and 10 µM
same,"glutathione reductase activity (Δ Absorbance 340 nm/min), difference between groups",[2],failed to reveal a significant difference
same,"oxidative stress-induced cellular damage and death (LDH release), trend",[3],trend towards amelioration
same,"LDH release following exposure to oxidative stress, group differences",[3],significant group differences were not observed
same,brain water content (measure of edema),[4],normalizes brain water content
same,"reduction of moderate to severe brain injury-induced edema, compared with Prog",[4]; moderate to severe TBI,equal efficacy to Prog
same,anti-oxidant activity of glutathione reductase,[5],significantly increases
same,activation of the classical progesterone receptor (PR),[6],does not activate
same,"most beneficial concentration for reducing edema, inflammation, oxidative stress and cell death within the penumbral region",[7],16 mg/kg
CC(=O)[C@H]1CC[C@H]2[C@@H]3CC[C@H]4C[C@H](O)CC[C@]4(C)[C@H]3CC[C@]12C [allopregnanolone],brain water content (measure of edema),[4],normalizes brain water content
same,presence of factors of cell death (caspase-3) and gliosis (GFAP),[7]; following injury,decreased
"CC(=O)[C@H]1CC[C@H]2[C@@H]3CCC4=CC(=O)CC[C@]4(C)[C@H]3CC[C@]12C [Prog, progesterone]",latency to platform (Morris Water Maze),[8]; post-acutely (15 minutes post),decreases latency to platform
same,latency to platform (Morris Water Maze),[8]; prophylactically (15 minutes prior),decreases latency to platform
same,LDH release compared to other treated groups,[1],significant reduction
same,"promoting cellular survival following oxygen and glucose deprivation, PRV-001 compared with progesterone",[1],equally effective
same,LDH release compared to other treated groups,"[1]; 0 h post-OGD, 1 μM progesterone vs 80 uM progesterone",significant reduction
same,LDH release compared to other treated groups,"[1]; 0 h post-OGD, 10 μM progesterone vs 80 μM progesterone",significant reduction
same,LDH release compared to control cells that did not undergo OGD,"[1]; 0 h post-OGD, 20 μM and 80 μM progesterone",significantly higher
same,LDH release compared to other treated groups,"[1]; 0 h post-OGD, 20 μM progesterone vs 80 μM progesterone",significant reduction
same,LDH release compared to control cells not exposed to OGD,"[1]; 0 h post-OGD, 1, 5, 10 and 40 μM progesterone",not significantly different
same,LDH release compared to untreated cells exposed to OGD,"[1]; 0 h post-OGD, all progesterone concentrations except 80 μM",significant reduction
same,LDH release compared to control cells not exposed to OGD,"[1]; 24 hours post-OGD, 1 μM and 40 μM progesterone",increased
same,LDH release compared to other treated groups,"[1]; 24 hours post-OGD, 10 μM progesterone vs 40 μM progesterone",significant reduction
same,LDH release compared to untreated cells exposed to OGD,"[1]; 24 hours post-OGD, 40 μM progesterone",except for those treated with 40 μM progesterone
same,LDH release compared to other treated groups,"[1]; 24 hours post-OGD, 80 μM progesterone vs 40 μM progesterone",significant reduction
same,LDH release compared to control cells not exposed to OGD,"[1]; 24 hours post-OGD, 5, 10, 20 and 80 μM progesterone",not significantly different
same,LDH release compared to untreated cells exposed to OGD,"[1]; 24 hours post-OGD, all progesterone groups except 40 μM",significant reduction
same,most effective concentrations to attenuate OGD-induced LDH release,[1],5 µM and 10 µM
same,"glutathione reductase activity (Δ Absorbance 340 nm/min), difference between groups",[2],failed to reveal a significant difference
same,"oxidative stress-induced cellular damage and death (LDH release), trend",[3],trend towards amelioration
same,"LDH release following exposure to oxidative stress, group differences",[3],significant group differences were not observed
same,brain water content (measure of edema),[4],normalizes brain water content
same,30 days post-injury outcomes (Glasgow Outcome Scale-Extended and Disability Rating Scale),[9]; moderate TBI patients,better outcomes
same,reduction in mortality,"[9]; moderate to severe TBI patients, 72 hours of continuous intravenous Prog",50%
same,30 days post-injury outcomes (Glasgow Outcome Scale-Extended and Disability Rating Scale),[9]; patients with severe brain injuries,little measurable difference
same,neurological outcomes long-term,[10],better neurological outcomes
same,"most beneficial concentration for reducing edema, inflammation, oxidative stress and cell death within the penumbral region",[7],16 mg/kg
same,edema,[7]; both rodent sexes following injury,effectively attenuates
same,inflammatory factors (TNF-a and IL-10),[7]; following injury,inhibiting
same,presence of factors of cell death (caspase-3) and gliosis (GFAP),[7]; following injury,decreased
same,Neurological Severity Score (motor and cognitive functioning),[7]; rats following injury,significant improvements
same,conversion of testosterone to dihydrotestosterone,[11],inhibits
same,size of reproductive organs,[11],reduces
same,spermatogenesis,[11],suppresses
